{"source": "patent US12482280B2", "about": "“Biological image transformation using machine-learning models” (Insitro, Inc., priority 2020, dated 2025)", "test_system": "tissues with NASH", "assay": "Evaluation of drug treatment in NASH disease model using GAN-generated phase/fluorescence images", "format": "cell-based", "details": "NASH 2X + ACC inhibitor", "description": "FIG. 16A illustrates synthetic images generated by an exemplary GAN model to study the NASH disease, in accordance with some embodiments. In the depicted example, Hepg2 cells with NASH genetic background are illuminated using an optimal illumination pattern identified using techniques described herein, and a bright-field image is captured. The bright-field image is inputted into a GAN model, which outputs a generated phase image and a generated fluorescence/bodipy image in FIG. 16A. The GAN model used in FIG. 16A can be configured to include a trained classifier as described with reference to FIGS. 14A-B and 15. The classifier has two conditions: a healthy condition (e.g., no perturbations) and a diseased condition (e.g., inflammation cocktail plus fatty acid). […]\nThe synthetic images generated by the GAN model can also be used to evaluate the efficacy of a treatment. […] The images can be phase images or fluorescence images generated using the techniques described herein (e.g., from bright-field images). Each phase or fluorescence image can be generated based on multiple bright-field images and thus comprises richer information such as phase shift information. Accordingly, the generated phase or fluorescence images can allow for higher precision in downstream analyses, as described below. […]", "data": [{"smiles": "COc1ccccc1[C@H](Cn1c(=O)n(C(C)(C)C(=O)O)c(=O)c2c(C)c(-c3ncco3)sc21)OC1CCOCC1", "note": "[ACC inhibitor, firsocostate]", "values": [{"measurement": "probability of having the disease outputted by a classifier trained on generated images (distribution, FIG. 16C)", "setting": "50 uM, treated tissues vs untreated diseased tissues, generated images", "result": "lower probabilities of having the disease than generated images of diseased tissues"}, {"measurement": "image clusters in an embedding space (UMAP, FIG. 16D)", "setting": "generated images of treated vs diseased vs healthy tissues", "result": "moves away from the cluster of generated diseased images and toward the cluster of generated healthy images"}]}]}
